Tested on: 876862-298-R-J1-PDC complex spheroids, viability % test/control
Experiment: Anticancer human tumor 876862-298-R-J1-PDC patient-derived endometrial carcinoma cell line growth inhibition [CLK]
Conditions: for IC50: curve of first compound; for viability, T/C: stronger effect = lower value
Outline: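 Multi-cell-type spheroids combined patient-derived tumor cells with HUVEC endothelial cells and human mesenchymal stem cells. Paired agents were dosed in half-log steps down from about clinical Cmax, or from 10 microM where Cmax was unknown.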

[1] = second compound 0.0316 µM, first compound 0.000949 µM
[2] = second compound 0.0316 µM, first compound 0.003 µM
[3] = second compound 0.0316 µM, first compound 0.00949 µM
[4] = second compound 0.0316 µM, first compound 0.03 µM
[5] = second compound 0.0316 µM, first compound 0.0949 µM
[6] = second compound 0.0316 µM, first compound 0.3 µM
[7] = second compound 0.1 µM, first compound 0.000949 µM
[8] = second compound 0.1 µM, first compound 0.003 µM
[9] = second compound 0.1 µM, first compound 0.00949 µM
[10] = second compound 0.1 µM, first compound 0.03 µM
[11] = second compound 0.1 µM, first compound 0.0949 µM
[12] = second compound 0.1 µM, first compound 0.3 µM
[13] = second compound 0.316 µM, first compound 0.000949 µM
[14] = second compound 0.316 µM, first compound 0.003 µM
[15] = second compound 0.316 µM, first compound 0.00949 µM
[16] = second compound 0.316 µM, first compound 0.03 µM
[17] = second compound 0.316 µM, first compound 0.0949 µM
[18] = second compound 0.316 µM, first compound 0.3 µM
[19] = second compound 1 µM, first compound 0.000949 µM
[20] = second compound 1 µM, first compound 0.003 µM
[21] = second compound 1 µM, first compound 0.00949 µM
[22] = second compound 1 µM, first compound 0.03 µM
[23] = second compound 1 µM, first compound 0.0949 µM
[24] = second compound 1 µM, first compound 0.3 µM
[25] = second compound 3.16 µM, first compound 0.000949 µM
[26] = second compound 3.16 µM, first compound 0.003 µM
[27] = second compound 3.16 µM, first compound 0.00949 µM
[28] = second compound 3.16 µM, first compound 0.03 µM
[29] = second compound 3.16 µM, first compound 0.0949 µM
[30] = second compound 3.16 µM, first compound 0.3 µM
[31] = second compound 10 µM, first compound 0.000949 µM
[32] = second compound 10 µM, first compound 0.003 µM
[33] = second compound 10 µM, first compound 0.00949 µM
[34] = second compound 10 µM, first compound 0.03 µM
[35] = second compound 10 µM, first compound 0.0949 µM
[36] = second compound 10 µM, first compound 0.3 µM
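Further: spheroids exposed to drugs for 7 days before readout.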
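Wherever viability, T/C is given: 100% = DMSO vehicle control wells.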

Q: For COc1ccc([C@@H](O)c2cc(-c3ncnc4cc(N5CCOCC5)ccc34)c(F)cc2Cl)nn1 + CNC(=O)c1ccc(Nc2nc(OC3CCCC3)c3c(-c4ccc5nc(C)oc5c4)c[nH]c3n2)c(OC)c1, which IC50 (second compound 0.0316 µM) is on record?
A: 3010 nM

Q: What about the IC50 (second compound 0.1 µM) of the same compound?
A: 81.2 nM

Q: What about the IC50 (second compound 0.316 µM) of the same compound?
A: < 31.6 nM

Q: What about the IC50 (second compound 1 µM) of the same compound?
A: < 31.6 nM

Q: And the IC50 (second compound 3.16 µM)?
A: < 31.6 nM

Q: What about the IC50 (second compound 10 µM) of the same compound?
A: < 31.6 nM

Q: And the viability, T/C (second compound 0.0316 µM, first compound 0.0316 µM)?
A: 72%

Q: And the viability, T/C (second compound 0.0316 µM, first compound 0.1 µM)?
A: 84.4%

Q: And the viability, T/C (second compound 0.0316 µM, first compound 0.316 µM)?
A: 69.5%

Q: What about the viability, T/C (second compound 0.0316 µM, first compound 1 µM) of the same compound?
A: 66.1%

Q: And the viability, T/C (second compound 0.0316 µM, first compound 3.16 µM)?
A: 49.4%

Q: What about the viability, T/C (second compound 0.0316 µM, first compound 10 µM) of the same compound?
A: 30.5%

Q: What about the viability, T/C (second compound 0.1 µM, first compound 0.0316 µM) of the same compound?
A: 50.6%

Q: What about the viability, T/C (second compound 0.1 µM, first compound 0.1 µM) of the same compound?
A: 49.3%

Q: What about the viability, T/C (second compound 0.1 µM, first compound 0.316 µM) of the same compound?
A: 48.7%

Q: What about the viability, T/C (second compound 0.1 µM, first compound 1 µM) of the same compound?
A: 38.8%

Q: And the viability, T/C (second compound 0.1 µM, first compound 3.16 µM)?
A: 34%

Q: And the viability, T/C (second compound 0.1 µM, first compound 10 µM)?
A: 26.8%

Q: What about the viability, T/C (second compound 0.316 µM, first compound 0.0316 µM) of the same compound?
A: 47%

Q: What about the viability, T/C (second compound 0.316 µM, first compound 0.1 µM) of the same compound?
A: 39.7%

Q: And the viability, T/C (second compound 0.316 µM, first compound 0.316 µM)?
A: 47.7%

Q: And the viability, T/C (second compound 0.316 µM, first compound 1 µM)?
A: 33.2%

Q: What about the viability, T/C (second compound 0.316 µM, first compound 3.16 µM) of the same compound?
A: 27.1%

Q: And the viability, T/C (second compound 0.316 µM, first compound 10 µM)?
A: 21.6%

Q: And the viability, T/C (second compound 1 µM, first compound 0.0316 µM)?
A: 31.9%

Q: What about the viability, T/C (second compound 1 µM, first compound 0.1 µM) of the same compound?
A: 28.8%

Q: And the viability, T/C (second compound 1 µM, first compound 0.316 µM)?
A: 30.4%

Q: And the viability, T/C (second compound 1 µM, first compound 1 µM)?
A: 26.8%

Q: And the viability, T/C (second compound 1 µM, first compound 3.16 µM)?
A: 21.1%

Q: And the viability, T/C (second compound 1 µM, first compound 10 µM)?
A: 15.5%

Q: And the viability, T/C (second compound 3.16 µM, first compound 0.0316 µM)?
A: 25%

Q: What about the viability, T/C (second compound 3.16 µM, first compound 0.1 µM) of the same compound?
A: 21.2%

Q: And the viability, T/C (second compound 3.16 µM, first compound 0.316 µM)?
A: 18.5%

Q: And the viability, T/C (second compound 3.16 µM, first compound 1 µM)?
A: 20.3%

Q: What about the viability, T/C (second compound 3.16 µM, first compound 3.16 µM) of the same compound?
A: 17.2%

Q: What about the viability, T/C (second compound 3.16 µM, first compound 10 µM) of the same compound?
A: 11.9%

Q: And the viability, T/C (second compound 10 µM, first compound 0.0316 µM)?
A: 23.2%

Q: And the viability, T/C (second compound 10 µM, first compound 0.1 µM)?
A: 19.2%

Q: And the viability, T/C (second compound 10 µM, first compound 0.316 µM)?
A: 17.9%

Q: What about the viability, T/C (second compound 10 µM, first compound 1 µM) of the same compound?
A: 16.3%

Q: What about the viability, T/C (second compound 10 µM, first compound 3.16 µM) of the same compound?
A: 17%

Q: What about the viability, T/C (second compound 10 µM, first compound 10 µM) of the same compound?
A: 10.2%

Q: Which results are given for C=CC(=O)Nc1cc(Nc2nccc(-c3cn(C)c4ccccc34)n2)c(OC)cc1N(C)CCN(C)C + CN1CCN(c2cc(C(=O)Nc3cc4cc(-c5cnn(C)c5)ccc4cn3)ccn2)CC1?
A: IC50 (second compound 0.0316 µM): 262 nM; IC50 (second compound 0.1 µM): < 0.949 nM; IC50 (second compound 0.316 µM): < 0.949 nM; IC50 (second compound 1 µM): < 0.949 nM; IC50 (second compound 3.16 µM): < 0.949 nM; IC50 (second compound 10 µM): < 0.949 nM; viability, T/C [1]: 90%; viability, T/C [2]: 92.8%; viability, T/C [3]: 90%; viability, T/C [4]: 82.7%; viability, T/C [5]: 67.6%; viability, T/C [6]: 47.6%; viability, T/C [7]: 51.6%; viability, T/C [8]: 45.1%; viability, T/C [9]: 43.7%; viability, T/C [10]: 48.8%; viability, T/C [11]: 43.3%; viability, T/C [12]: 30.7%; viability, T/C [13]: 3.41%; viability, T/C [14]: 4.12%; viability, T/C [15]: 3.52%; viability, T/C [16]: 4.04%; viability, T/C [17]: 4.57%; viability, T/C [18]: 3.03%; viability, T/C [19]: 0.75%; viability, T/C [20]: 1.64%; viability, T/C [21]: 2.15%; viability, T/C [22]: 1.03%; viability, T/C [23]: 0.6%; viability, T/C [24]: 2.34%; viability, T/C [25]: 1.02%; viability, T/C [26]: 1.18%; viability, T/C [27]: 1.66%; viability, T/C [28]: 1.01%; viability, T/C [29]: 1.3%; viability, T/C [30]: 1.16%; viability, T/C [31]: 0.77%; viability, T/C [32]: 2.03%; viability, T/C [33]: 2.52%; viability, T/C [34]: 1.87%; viability, T/C [35]: 2.21%; viability, T/C [36]: 1.88%

Q: With CC(C)CC(NC(=O)C(Cc1ccccc1)NC(=O)c1cnccn1)B(O)O (stereo unspecified) + CNC(=O)c1ccc(Nc2nc(OC3CCCC3)c3c(-c4ccc5nc(C)oc5c4)c[nH]c3n2)c(OC)c1 as the compound, how does the IC50 (second compound 0.0316 µM) read?
A: 1.53 nM

Q: And the IC50 (second compound 0.1 µM)?
A: < 0.949 nM

Q: What about the IC50 (second compound 0.316 µM) of the same compound?
A: < 0.949 nM

Q: What about the IC50 (second compound 1 µM) of the same compound?
A: < 0.949 nM

Q: What about the IC50 (second compound 3.16 µM) of the same compound?
A: < 0.949 nM

Q: And the IC50 (second compound 10 µM)?
A: < 0.949 nM

Q: What about the viability, T/C [1] of the same compound?
A: 78.1%

Q: What about the viability, T/C [2] of the same compound?
A: 10.6%

Q: What about the viability, T/C [3] of the same compound?
A: 0.67%

Q: And the viability, T/C [4]?
A: 0.44%

Q: What about the viability, T/C [5] of the same compound?
A: 1.97%

Q: And the viability, T/C [6]?
A: 1.37%

Q: What about the viability, T/C [7] of the same compound?
A: 47.3%

Q: And the viability, T/C [8]?
A: 7.8%

Q: What about the viability, T/C [9] of the same compound?
A: 0.68%

Q: And the viability, T/C [10]?
A: 0.53%

Q: And the viability, T/C [11]?
A: 1.95%

Q: What about the viability, T/C [12] of the same compound?
A: 0.42%

Q: And the viability, T/C [13]?
A: 43.2%

Q: And the viability, T/C [14]?
A: 5.92%

Q: And the viability, T/C [15]?
A: 1.95%

Q: What about the viability, T/C [16] of the same compound?
A: 0.56%

Q: And the viability, T/C [17]?
A: 1.66%

Q: And the viability, T/C [18]?
A: 0.96%

Q: What about the viability, T/C [19] of the same compound?
A: 38.4%

Q: What about the viability, T/C [20] of the same compound?
A: 4.5%

Q: What about the viability, T/C [21] of the same compound?
A: 0.69%

Q: And the viability, T/C [22]?
A: 0.62%

Q: What about the viability, T/C [23] of the same compound?
A: 1.84%

Q: And the viability, T/C [24]?
A: 0.22%

Q: And the viability, T/C [25]?
A: 27.6%

Q: And the viability, T/C [26]?
A: 3.22%

Q: And the viability, T/C [27]?
A: 0.41%

Q: And the viability, T/C [28]?
A: 0.44%

Q: What about the viability, T/C [29] of the same compound?
A: 1.98%

Q: What about the viability, T/C [30] of the same compound?
A: 1.11%

Q: And the viability, T/C [31]?
A: 23.3%

Q: What about the viability, T/C [32] of the same compound?
A: 2.73%

Q: What about the viability, T/C [33] of the same compound?
A: 0.85%

Q: What about the viability, T/C [34] of the same compound?
A: 0.4%

Q: And the viability, T/C [35]?
A: 0.82%

Q: What about the viability, T/C [36] of the same compound?
A: 1.17%
